Reference: US20070282004A1, “Use of a Cyclopentenone Prostaglandin for Delaying for the Onset and/or Preventing the Continuation of Labour” (Imperial College Innovations Limited, priority 2003, published 2007)
Entries after “also recorded” stand apart in the source; their conditions may differ.

Experiments:
[1] = molecular target: T1, NF-κB (Homo sapiens, UniProt P19838+Q04206); assay: EMSA of NF-κB DNA binding in nuclear extracts of treated myometrial cells; format: cell-based; details: for IL-1β-induced NF-κB DNA binding (EMSA): myometrial cells, treated 2 h, then IL-1β 15 min
T1 construct: nuclear protein extracts from myometrial cells; endogenous in cells; host or cells: primary human myometrial cells (term, passage 1-4)
Experimental: (§1) Myometrial tissue was collected at term from the upper margin of uterine incision at the time of lower segment caesarean section either prior to the onset of labour (L−) or […] (L+). L+ samples were collected by Dr Mark Johnson and Dr S Soorrana at Chelsea & Westminster Hospital. Myometrial tissue was dissected, rinsed in PBS, and digested in serum-free DMEM containing 15 mg/ml collagenase 1A (Sigma), 15 mg/ml collagenase X, and 50 mg/ml bovine serum albumin for 45 min at 37° C. The cell suspension was filtered through a cell strainer, centrifuged at 400 g for 5 min, and the pellet re-suspended and plated out in DMEM, 10% FCS (Helena BioScience), 1% L-glutainine, 1% penicillin-streptomycin. Cells were used between passage numbers 1-4.
(§2) Nuclear and cytosolic protein extracts were obtained from cultured amnion cells as described by Schreiber et al (1989). For nuclear/cytosolic fractionation, confluent cell monolayers were scraped and lysed using a buffer containing 10 mM HEPES, 10 mM KCl, 0.1 mM EDTA, 0.1 mM EGTA, 2 mM DTT, 1% (v/v) NP-40 and complete protease inhibitor tablets (CPIs, Roche), diluted to manufacturer's instructions. Cell lysates were incubated on ice for 10 min and NP-40 added to a final concentration of 1% (v/v). Lysates were vortexed for 10 secs and centrifuged for 30 secs at 4° C., 12000 g. The supernatants were retained as the cytosolic protein extracts. The pellets were resuspended in buffer containing 10 mM HEPES, 10 mM KCl, 0.1 mM EDTA, 0.1 mM EGTA, 2 mM DTT, 400 mM NaCl, 1% NP-40 (v/v) and CPIs. Samples were shaken vigorously for 15 min in an ice bath. The nuclear protein extracts were obtained in the supernatant following a 5 min centrifugation at 4° C., 12000 g.
Sense and antisense strands (175 nmole/ml each) were incubated in annealing buffer (10 mM Tris-HCl pH7.5, 100 mM NaCl, 1 mM EDTA) for 10 min at 65° C., and allowed to cool at room temperature for 2 h. 3.5 pmole double-stranded oligonucleotides were end-labelled with 0.37 MBq ^32P(γATP) by incubating for 30 min at 37° C. with T4 polynucleotide kinase. Labelled oligonucleotides were recovered by centrifugation at 3000 rpm for 2 min through MicroSpin G-25 or G-50 sephadex columns (Amersham Biosciences).
3-5 μg protein extracts were incubated on ice for 1 h with non-radiolabelled non-specific oligonucleotide (poly(dI-dC) or Oct-1) in a binding buffer (20% (v/V) glycerol, 5 mM MgCl2, 2 mM EDTA, 50 mM Tris-HCl pH7.5, 250 mM NaCl, 2 mM DTT), followed by a 45 min incubation with 0.035 pmole ^32P(γ(ATP)-end labelled oligonucleotide probes:
Oct-1 or SP-1 consensus sequences were used as a controls for a NF-κB-specific effect. The resulting protein/DNA complexes were separated in a 4% acrylamide gel, the gel dried under vacuum at 80° C. and exposed to X-ray film. For supershift analysis, samples were incubated with 2 μg antibodies for 30 min on ice prior to incubation with oligonucleotides. Non-radio-labelled oligonucleotides were used at 100-fold molar excess for specific and non-specific competition for DNA binding. Reagents for EMSA were obtained from Promega Life Sciences, Delta House, Chilworth Research Centre, Southampton SO16 7NS, United Kingdom.

[2] = test system: NF-κB; assay: Western immunoblot of p65, p50, IκB in myometrial cell extracts; format: cell-based, human; details: myometrial cells; for IL-1β-induced p65 nuclear translocation: treated 2 h
Experimental: Western immunoblots of nuclear or cytosolic protein extracts from (A) myometrial cells, (B) L− amnion cells, and (C) L+ amnion cells treated with 15dPGJ2 or vehicle for 2 h±IL-1β stimulation (15 min). Blots probed with antibodies against p65, p50 or IκBα.
Western immunoblots of nuclear or cytosolic protein extracts from myometrial cells treated with PGA1 or vehicle for 2 h followed by IL-1β stimulation (15 min). Blots probed with antibodies against p65 or IκBa.
Western immunoblots of cytosolic extracts from myometrial cells (A) treated with 15dPGJ2 for 2h±IL1b for 15 min; probed for IKK, and (B) treated with […] 15dPGJ2, […] MG132 or vehicle for 2 h, ±IL-1β for 15 min; probed for IκBα.
(A) NF-κB-DNA binding was measured by EMSA in nuclear protein extracts from myometrial cells pre-treated with vehicle, 15d-PGJ2 or PGA1 for 2 h, followed by stimulation with IL-1β (1 ng/ml) for 15 min. Antibodies against p50 and p65 were used for supershift analysis. (B) Myometrial cells were transiently transfected with a NF-κB-LUC reporter and a β-gal reporter plasmid, pre-treated with vehicle or PGA1 for 2 h, and stimulated with IL-1β (1 ng/ml) for 6 h. Luciferase activity was normalized for β-gal reporter readout. Values are presented as the mean±SEM obtained for each treatment done in triplicate. Western blot analysis of nuclear p65 and p50 expression in myometrial cells treated with (C) PGA1 or (D) 15d-PGJ2 for 2 h, followed by stimulation with IL-1β (1 ng/ml) for 15 min. (E) Western blot analysis of whole cell lysates from myometrial cells treated with 15d-PGJ2 or 9,10-dihydro-15d-PGJ2 for 2 h, followed by stimulation with IL-1β (1 ng/ml) for 15 min. Membranes were probed with antibodies against p65 and Ser 536-phosphorylated p65.
as §1, §2
Protein samples (20-70 μg) were mixed with Laemmli sample buffer (1:1) containing β-mercaptoethanol (5%), and boiled for 5 min. Proteins were then separated by SDS-PAGE (12-14% gels) and transferred onto PVDF membrane (Amersham Pharmacia Biotech). The membranes were blocked overnight in 5% non-fat milk prepared in PBS-T buffer, at 4° C. The blots were incubated with the primary antibody in 1% non-fat milk in PBS-T buffer for 1 h, and washed three times (10 min each) in PBS-T with vigorous shaking. […]

T1 sequence (Q04206 whole entry): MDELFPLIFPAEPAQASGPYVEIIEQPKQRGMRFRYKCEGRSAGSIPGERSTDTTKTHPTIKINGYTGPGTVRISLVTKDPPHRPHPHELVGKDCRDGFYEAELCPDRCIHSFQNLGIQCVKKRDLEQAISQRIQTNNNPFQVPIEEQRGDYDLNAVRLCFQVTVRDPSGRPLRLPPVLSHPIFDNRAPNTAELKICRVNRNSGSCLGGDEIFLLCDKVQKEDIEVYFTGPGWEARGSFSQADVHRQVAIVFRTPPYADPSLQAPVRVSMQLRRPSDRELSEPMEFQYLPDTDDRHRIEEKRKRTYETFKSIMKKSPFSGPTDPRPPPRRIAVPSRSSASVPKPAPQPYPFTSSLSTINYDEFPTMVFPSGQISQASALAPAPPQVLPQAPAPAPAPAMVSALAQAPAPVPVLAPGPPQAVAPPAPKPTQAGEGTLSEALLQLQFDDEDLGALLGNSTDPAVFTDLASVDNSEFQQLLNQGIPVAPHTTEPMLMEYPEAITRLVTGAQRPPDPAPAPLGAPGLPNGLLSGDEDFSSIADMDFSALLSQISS
T1 sequence (P19838 1-433 limits assumed): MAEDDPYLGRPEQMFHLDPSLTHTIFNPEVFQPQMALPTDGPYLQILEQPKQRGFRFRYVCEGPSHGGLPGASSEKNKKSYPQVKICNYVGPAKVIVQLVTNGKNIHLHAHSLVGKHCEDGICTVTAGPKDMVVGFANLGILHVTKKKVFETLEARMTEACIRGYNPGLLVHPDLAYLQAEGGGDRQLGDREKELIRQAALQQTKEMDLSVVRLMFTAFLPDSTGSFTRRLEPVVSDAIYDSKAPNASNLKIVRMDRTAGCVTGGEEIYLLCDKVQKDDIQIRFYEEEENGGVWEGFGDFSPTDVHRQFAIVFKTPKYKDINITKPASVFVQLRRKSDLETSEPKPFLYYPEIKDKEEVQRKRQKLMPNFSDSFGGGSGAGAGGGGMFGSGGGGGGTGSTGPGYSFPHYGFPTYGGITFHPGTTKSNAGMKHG

Compound | Protein binding to a consensus Oct-1 or Sp-1 probe (control) ([1]; myometrial and amnion cells) | IL-1β-induced NF-κB DNA binding (EMSA) [1] | IL-1β-induced NF-κB DNA binding (EMSA) ([1]; listed as 15dPGJ2) | IL-1β-induced IκBα degradation [2] | IL-1β-induced IκBβ degradation [2] | IL-1β-induced p50 phosphorylation [2] | IκBα phosphorylation [2] | Accumulation of phosphorylated IκBα ([2]; 2 h, IL-1β 15 min) | IL-1β-induced p65 nuclear translocation ([2]; IL-1β 15 min) | IL-1β-induced p65 nuclear translocation ([2]; IL-1β 15 min, listed as 15dPGJ2) | Reproduction of the effects of 15d-PGJ2 on NF-κB (incl. Ser 536-phosphorylated p65) ([2]; 2 h, IL-1β 15 min, similar in amnion epithelial cells)
CCCCCC=CC=C1C(=O)C=C[C@@H]1CC=CCCCC(=O)O [15d-PGJ2, 15-deoxy-Δ^12,14prostaglandin J2] | unaffected | inhibited IL1-β-induced NF-κB DNA binding in a dose-dependent manner | inhibition | inhibition | inhibition | inhibition | inhibits | not detected | inhibited | inhibition | 
CCCCC[C@H](O)/C=C/[C@H]1C=CC(=O)[C@@H]1CCCCCCC(=O)O [PGA1, prostaglandin A1] |  | inhibition |  | inhibition |  |  |  |  | inhibition; also recorded: inhibited |  | shares the effect of 15d-PGJ2
